Like-named read-outs stand apart in the source and are kept apart here.
Tested on: HBeAg level in HepDES19 cells (surrogate marker for HBV cccDNA)
Experiment: Engineered HepDES19 primary screen assay (HBeAg as surrogate marker for cccDNA)
Assay type: cell-based
Conditions: Hepatitis B virus, read-out: IC50 (HBeAg level, HepDES19 primary screen assay)
Text: The assay was employed to screen for novel cccDNA inhibitors. HepDES19 is a cccDNA-producing cell line. In this cell line, HBeAg in the cell culture supernatant as surrogate marker, as HBeAg production depends on cccDNA level and activity. HepDES19 is an engineered cell line which contains a 1.1 unit length HBV genome, and pgRNA transcription from the transgene is controlled by Tetracycline (Tet). In the absence of Tet, pgRNA transcription will be induced, but HBV e antigen (HBeAg) could not be produced from this pgRNA due to very short leader sequence before the HBeAg start codon and the start codon is disrupted. Only after cccDNA is formed, the missing leader sequence and start codon mutation would be restored from the 3′-terminal redundancy of pgRNA, and then HBeAg could be synthesized. Therefore, HBeAg could be used as a surrogate marker for cccDNA (Zhou, T. et al., Antiviral Res.(2006), 72(2), 116-124; Guo, H. et al., J. Virol. (2007), 81(22), 12472-12484).
HepDES19 cells were seeded at 2×10^6 cells per T150 flask and cultured with the culture medium (Dulbecco's Modified Eagle Medium: Nutrient Mixture F-12 [DMEM-F12, Gibco Cat. 11320-82], 10% Fetal Bovine Serum [FBS, Clontech Cat. 631101], 0.1 mM Non-Essential Amino Acids Solution [NEAA, Gibco Cat. 11140-050], 50 μg/mL Penicillin-Streptomycin [PS, Invitrogen Cat. 15140-163], 500 μg/mL Geneticin [G418, Invitrogen Cat. 10131-027]) containing 3 μg/mL Tet (Sigma, Cat. 87128) for 5 days. Cells were then seeded at 4×10^6 cells per T150 in the same culture medium as described above in the absence of Tet for 8 days. Cells were then harvested and frozen at density of 2×10^6 cells per mL. For compound testing, the frozen cells were thawed and seeded into 96-well plates at a density of 6 ×10^4 cells per well. At 24hours after seeding, half log serial dilutions of compounds made with Dimethyl sulfoxide (DMSO, Sigma, Cat. D2650) were further diluted with the same culture medium as described above before they were added to the cells to reach desired final compound concentrations and 1% DMSO concentration. Plates were then incubated at 37° C. for another 5 days before measurement of HBeAg level and cell viability. Intracellular HBeAg level were measured with enzyme-linked immunosorbent assay (ELISA) kit (Shanghai Kehua Diagnostic Medical Products Co., Ltd). Cell viability was assessed using Cell Counting Kit-8 (DonJindo, Cat. CK04-20). IC50 values were derived from the dose-response curve using 4 parameter logistic curve fit method.
The compounds of the present invention were tested for their capacity to inhibit extracellular HBeAg level as described herein.

[1] = 120 h, HepDES19 cells, 5 days incubation with compound, HBeAg ELISA

## O=C(NCCCl)C1NC(c2ccc(Br)cc2)=Nc2c(Cl)cccc21 (stereo not drawn) [Example 18, 2-(4-bromophenyl)-8-chloro-N-(2-chloroethyl)-3,4-dihydroquinazoline-4-carboxamide]
HepDES19, 120 h
  IC50: 2.59 µM

## CC1c2cccc(Cl)c2N=C(c2ccc(OCCOCC(=O)O)cc2)N1C (stereo not drawn) [Example 26, 2-[2-[4-(8-chloro-3,4-dimethyl-4H-quinazolin-2-yl)phenoxy]ethoxy]acetic acid]
[1]
  IC50: 5.54 µM

## CC1c2ccc(C(F)(F)F)cc2N=C(c2cccc(Br)c2)N1CCO (stereo not drawn) [Example 25, 2-[2-(3-bromophenyl)-4-methyl-7-(trifluoromethyl)-4H-quinazolin-3-yl]ethanol]
[1]
  IC50: 9.55 µM

## O=C(O)C1NC(c2ccc(N3CCCC3)nc2)=Nc2c(Cl)cccc21 (stereo not drawn) [Example 10, 8-chloro-2-(6-pyrrolidin-1-yl-3-pyridyl)-3,4-dihydroquinazoline-4-carboxylic Acid]
[1]
  IC50: 0.05 µM

## COc1ccc2c(c1)CCN(C1=Nc3c(Cl)cccc3C(C)N1)C2=O (stereo not drawn) [Example 29, 2-(8-chloro-4-methyl-3,4-dihydroquinazolin-2-yl)-6-methoxy-3,4-dihydroisoquinolin-1-one]
[1]
  IC50: 0.027 µM

## OCC1NC(c2ccc(Br)cc2)=Nc2c(Cl)cccc21 (stereo not drawn) [Example 38, [2-(4-bromophenyl)-8-chloro-3,4-dihydroquinazolin-4-yl]methanol]
[1]
  IC50: 5.32 µM

## CCOc1ccc(C2=Nc3c(Cl)cccc3C(C(=O)O)N2)cn1 (stereo not drawn) [Example 9, 8-chloro-2-(6-ethoxy-3-pyridyl)-3,4-dihydroquinazoline-4-carboxylic Acid]
[1]
  IC50: 0.45 µM

## NC(=O)C1NC(c2cccc(Br)c2)=Nc2cc(C(F)(F)F)ccc21 (stereo not drawn) [Example 15, 2-(3-bromophenyl)-7-(trifluoromethyl)-3,4-dihydroquinazoline-4-carboxamide]
[1]
  IC50: 0.26 µM

## CC1NC(n2cnc(Br)c2)=Nc2cc(C(F)(F)F)ccc21 (stereo not drawn) [Example 30, 2-(4-bromoimidazol-1-yl)-4-methyl-7-(trifluoromethyl)-3,4-dihydroquinazoline]
[1]
  IC50: 0.778 µM

## COc1ccc(C2=Nc3c(Cl)cccc3C(C(N)=O)N2)cc1 (stereo not drawn) [Example 14, 8-chloro-2-(4-methoxyphenyl)-3,4-dihydroquinazoline-4-carboxamide]
[1]
  IC50: 2.47 µM

## CC1c2ccc(C(F)(F)F)cc2N=C(c2cccc(Br)c2)N1C (stereo not drawn) [Example 24, 2-(3-bromophenyl)-3,4-dimethyl-7-(trifluoromethyl)-4H-quinazoline]
[1]
  IC50: 2.1 µM

## COc1ccc(C2=Nc3c(Cl)cccc3C(C(=O)O)N2)cn1 (stereo not drawn) [Example 8, 8-chloro-2-(6-methoxy-3-pyridyl)-3,4-dihydroquinazoline-4-carboxylic Acid]
[1]
  IC50: 9.16 µM

## O=C(C1NC(c2ccc(Br)cc2)=Nc2cc(C(F)(F)F)ccc21)N1CCOCC1 (stereo not drawn) [Example 17, [2-(4-bromophenyl)-7-(trifluoromethyl)-3,4-dihydroquinazolin-4-yl]-morpholino-methanone]
[1]
  IC50: 1.65 µM

## OCCOc1ccc(C2=Nc3c(Cl)cccc3CN2)cc1 [Example 27, 2-[4-(8-chloro-3,4-dihydroquinazolin-2-yl)phenoxy]ethanol]
[1]
  IC50: 11.6 µM

## Clc1cccc2c1N=C(c1ccc(Br)cc1)NC2C1CC1 (stereo not drawn) [Example 35, 2-(4-bromophenyl)-8-chloro-4-cyclopropyl-3,4-dihydroquinazoline]
[1]
  IC50: 0.41 µM

## CC1NC(c2ccc(OCCO)cc2)=Nc2c(Cl)cccc21 (stereo not drawn) [Example 28, 2-[4-(8-chloro-4-methyl-3,4-dihydroquinazolin-2-yl)phenoxy]ethanol]
[1]
  IC50: 4.77 µM

## CC1NC(c2ccc(Br)cc2OCCOC2CC(C(=O)O)C2)=Nc2c(Cl)cccc21 (stereo not drawn) [Example 37, 3-[2-[5-bromo-2-(8-chloro-4-methyl-3,4-dihydroquinazolin-2-yl)phenoxy]ethoxy]cyclobutanecarboxylic Acid]
[1]
  IC50: 1.97 µM

## CC1(C)NC(c2ccc(Br)cc2)=Nc2c(Cl)cccc21 [Example 34, 2-(4-bromophenyl)-8-chloro-4,4-dimethyl-3H-quinazoline hydrofluoride]
[1]
  IC50: 5.78 µM

From patent publication US20220388969A1, “SUBSTITUTED 3,4-DIHYDROQ[…] THE TREATMENT AND PROPHYLAXIS OF HEPATITIS B VIRUS INFECTION” (priority 2019, published 2022)
